Experiments:
[1] = target: T1, 17β-hydroxysteroid dehydrogenase type 10 (HSD10) (Homo sapiens, UniProt Q99714); assay: (-)-CHANA fluorogenic probe turnover in HSD10-overexpressing HEK293 cells; type: cell-based
T1 construct: gene HSD17B10; HSD10 overexpressed in HEK293 cells
T1 sequence (Q99714 2-261): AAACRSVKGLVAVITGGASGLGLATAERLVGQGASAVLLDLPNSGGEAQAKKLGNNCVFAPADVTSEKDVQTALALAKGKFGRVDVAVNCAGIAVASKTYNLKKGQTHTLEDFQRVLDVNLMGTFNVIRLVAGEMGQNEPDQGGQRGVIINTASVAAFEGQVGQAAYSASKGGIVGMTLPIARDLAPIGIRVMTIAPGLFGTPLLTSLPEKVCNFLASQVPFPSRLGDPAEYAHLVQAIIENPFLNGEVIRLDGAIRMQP

[2] = target: amyloid-β 42 Aβ1-42 (Homo sapiens) (UniProt P05067); details: cited from earlier work
amyloid-β 42 Aβ1-42 (Homo sapiens), sequence (P05067 1-42): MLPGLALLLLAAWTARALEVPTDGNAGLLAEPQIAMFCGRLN

Row | IC50 [1] [nM] | Molecule | Kd [2] [nM]
1 | 190 | O=C(C(c1ccccc1)n1cnc2[nH]ncc2c1=S)N1CCCCCC1 (stereo not drawn) [AG18051] | 
2 | 4260 | COc1ccc2nc(NC(=O)c3ccc(O)c(Cl)c3)sc2c1 [compound 34, inhibitor 34] | 
3 |  | HSD10 (from UniProt Q99714) | 55.8

— PMC12285154, “New insights into the 17β-hydroxysteroid dehydrogenase type 10 and amyloid-β 42 derived cytotoxicity relevant to Alzheimer’s disease” (Alzheimer's Research & Therapy, 2025)
